These results are taken from US4179467A, “Dopamine hydroxylase inhibiting 2-amino-cyclopent-1-ene-1-thiocarboxylic acid-disulfides” (Richter Gedeon Vegyeszeti Gyar Rt., priority 1976, dated 1979).

The subject of series [1] is dopamine-β-hydroxylase. Briefly: Adrenaline level of adrenal gland in rats, % of controls. The class given is in vivo, male Wistar rats. The following applies: rat, i.p., 4 hours. The protocol:
(§1) The dopamine-β-hydroxylase inhibiting effects of the new compounds according to the invention were examined by the following tests:
(§2) The tests were performed on male Wistar rats weighing 150 to 200 g. The dopamine-β-hydroxylase inhibiting effects of the compounds were evaluated by determining the change of noradrenaline, dopamine and adrenaline levels of the cerebrum, heart, spleen and adrenal gland. The serotonine and 5-hydroxy-indolylacetic acid levels of the cerebrum were also determined. The measurements were performed as follows:
(§3) The animals were decapitated, the cerebrum, heart, spleen and adrenal gland were removed quickly, and the organs were frozen by placing them on a metal sheet cooled with dry ice. The frozen organs were stored for a maximum of one night at -20° C.
The adrenal glands were freed from fat and homogenized in 3.0 ml of ice-cold 0.4 N perchloric acid. The homogenized mixtures were centrifuged for 10 minutes at 0° C. with a speed of 3200 r.p.m. using a Janetzky K-70 type centrifuge. 0.05 ml samples were taken from the supernatant, and the adrenaline level was determined directly by the method of Laverty et al. (Anal. Biochem. 22, 269 (1968)).
(§4) In the tests disulfiram, 2,2-dipyridyl, bis(1-methyl-4-homopiperazinyl-thiocarbonyl)-disulfide, sodium diethyldithiocarbamate and N-phenyl-N'-(2-thiazolyl)-thiourea were used as reference substances. The values indicated in Table 1 are the percentages in relation to the amine levels of the controls measured in the same tests (±standard error). The statistical calculations were performed on a TPA/i type computer, using Student's t test.

Series [2] concerns dopamine-β-hydroxylase. The following applies: known compounds, literature; cited from earlier work.
Series [3] has as its system dopamine-β-hydroxylase. Kind of series: Noradrenaline and dopamine levels of the cerebrum (brain) in rats, % of controls. The class given is in vivo, male Wistar rats. The following applies: rat, i.p., 4 hours. The protocol: as §1, §2, §3
(§5) The organs were weighed in the frozen state and then homogenized in 5.0 ml of 0.4 N perchloric acid containing 0.05% of EDTA-Naa and 0.1% of Na2 S2 O5. The homogenized mixtures were centrifuged as described above for the treatment of adrenal gland, the supernatants were decanted, and the pH was adjusted to 8.0±0.1 with a 0.1 molar tris buffer containing 20 g/l of NaOH and 25 g/l of EDTA-Na2. 100 mg of prepared Al2 O3 (Anton et al.: J. Pharm. Ther. 138, 360 (1962)) were added to the samples, and the mixtures were shaken mechanically for 20 minutes. Thereafter the Al2 O3 was washed with 2×10 ml of distilled water, and noradrenaline was eluted with 1.0 ml of 0.05 N perchloric acid. 0.5 ml samples of the eluate were used for the determination of noradrenaline. Noradrenaline was determined according to the method of Shellenberger et al. (Anal. Biochem. 39, 356 (1971)), with the following modifications of the basic procedure: 0.5 ml of 0.1 molar Na-K-phosphate buffer, containing 9 g/l of EDTA-Na2, were added to 0.5 ml of the eluate, and the catecholamines (noradrenaline in the examination of heart and spleen and noradrenaline and dopamine in the examination of the cerebrum) were oxidized with 0.1 ml of a 0.1 N iodine solution in 5% potassium iodide. After exactly 2 minutes, oxidation was stopped by adding 0.25 ml of a 2.5% sodium sulfite solution in 4.4 N aqueous sodium hydroxide to the mixture. 2 minutes after the introduction of the alkaline sulfite solution, 0.2 ml of concentrated acetic acid was added to the samples, whereupon the pH decreased to 4.4 to 4.5. Thereafter the samples were placed for 5 minutes in a drying oven heated to 100° C., and then the samples were cooled with ice water. The fluorescency of noradrenaline was measured with an OPTON spectrophotometer at wavelengths of 380 nm (excitation) and 490 nm (emission).
The brains were homogenized in 10 parts by volume of 0.4 N perchloric acid. The homogenized mixture was stored at -20° C. overnight; thereafter it was thawed and centrifuged as described above. A sample of the homogenized mixture corresponding to 0.5 g of brain was removed, the pH of the sample was adjusted to 8.0±0.1 with 0.1 molar tris-buffer of the above composition, and the sample was processed as described above for the determination of the noradrenaline content of heart and spleen, with the difference that 1.5 ml of 0.05 N perchloric acid was used as the eluting agent. 0.5 ml of the eluate was used to determine the noradrenaline and dopamine contents. The measurement was performed as described above, with the difference that samples of 0.5 ml were applied for the recording of the flourescence of noradrenaline. The residue was placed for 50 minutes into a drying oven heated to 100° C., thereafter the sample was cooled with ice water, and the fluorescence of dopamine was recorded at wavelengths of 325 nm (excitation) and 380 nm (emission).
In a further test series the serotonine and 5-hydroxy-indolylacetic acid contents were also determined, in addition to the determination of the noradrenaline and dopamine content, from the same sample. […]

The subject of series [4] is serotonine and 5-hydroxy-indolylacetic acid levels of the cerebrum. Briefly: Serotonine and 5-hydroxy-indolylacetic acid levels of the cerebrum (brain) in rats, % of controls. The conditions noted are these: rat, i.p., 4 hours. The class given is in vivo, male Wistar rats. The protocol: as §2, §3
In a further test series the serotonine and 5-hydroxy-indolylacetic acid contents were also determined, in addition to the determination of the noradrenaline and dopamine content, from the same sample. In this instance the brains were homogenized in 10 ml of 75% ethanol, 0.2 ml of EDTA-Na2 and 5% of ascorbic acid were added to the homogenized mixtures, and the homogenized mixtures were maintained at -20° C. overnight. The mixtures were centrifuged as described above, and 5.0 ml samples of the supernatant were removed. The samples were diluted with equal volumes of distilled water, and poured onto ion exchange columns of 0.5×1.5 cm dimensions, filled with buffered Amberlite CG-30 (200 to 400 mesh). The columns were washed with 5 ml of distilled water followed by 1.0 ml of 0.2 N hydrochloric acid, and the first effluent and the aqueous wash were collected for the determination of 5-hydroxy-indolylacetic acid. Elution was continued with a further 1.2 ml quantity of 0.2 N hydrochloric acid in order to remove noradrenaline, dopamine and serotonine. Samples of 0.3 ml were used for the determinations.
Noradrenaline and dopamine were determined by the method of Shellenberger, modified as described above, whereas serotonine was determined by the method of Curzon et al. (Brit. J. Pharmacol. 39, 653 (1970)). The basic method was modified as follows: A 0.5% solution of ortho-phthal(di)aldehyde in absolute ethanol was diluted with […] hydrochloric acid to 50-fold of its original volume, and 0.6 ml of the resulting 0.01% ortho-phthal(di)aldehyde solution were added immediately to 0.5 ml of the serotonine-containing sample. The sample was placed in a hot water bath for 10 minutes, thereafter cooled with tap water, and the flourescence was recorded at wavelengths of 360 nm (excitation) and 490 nm (emission).
5-Hydroxy-indolylacetic acid was determined from the mixture of the first effluent and the aqueous wash. 10 ml of distilled water and 0.2 ml of concentrated hydrochloric acid were added to the mixture, and the sample was poured onto a 0.8×4.0 cm column filled with Sephadex G-10. The column was washed with 15 ml of 0.1 N hydrochloric acid followed by 1.8 to 2.0 ml of 0.02 N aqueous ammonia, and then 5-hydroxy-indolylacetic acid was eluted with further 2.0 ml of the aqueous ammonia. 0.5 ml samples were used in the measurements, and the determination was performed according to the method of Korf et al. (Biochem. Pharmacol. 20, 659 (1971)).
as §4

The nature of the next series: Toxicity, LD50, rats. The conditions noted are these: rat, in vivo, po.
The subject of series [5] is dopamine-β-hydroxylase. Briefly: Noradrenaline level of heart in rats, % of controls. The class given is in vivo, male Wistar rats. The conditions noted are these: rat, i.p., 4 hours. The protocol: as §1, §2, §3, §5, §4
A short description of the next series: Toxicity, LD50, rabbits. The following applies: rabbit, in vivo, po.

Turning to `CCN(CC)C(=S)SSC(=S)N(CC)CC` [DS, bis(diethylthiocarbamoyl)-disulfide], the entries for the “Adrenal gland adrenaline level (% of controls)” value in the series with dopamine-β-hydroxylase [1] (200 mg/kg) and in the series with dopamine-β-hydroxylase [1] (400 mg/kg) were 52% and 66%, respectively. The “dopamine-β-hydroxylase inhibiting effects, in words” value in the series on dopamine-β-hydroxylase [2] is reported as “strong dopamine-β-hydroxylase inhibiting effects”. The “Brain DA level (percentages in relation to the controls)” value in the series with dopamine-β-hydroxylase [3] (200 mg/kg) is 111%; in the series on dopamine-β-hydroxylase [3] (400 mg/kg), 112%. Besides, the “Brain NA level (percentages in relation to the controls)” value turned out to be 22.5% in the series on dopamine-β-hydroxylase [3] (200 mg/kg) and 24.1% in the series with dopamine-β-hydroxylase [3] (400 mg/kg). The “Brain SE level (percentages in relation to the controls)” value in series [4] (200 mg/kg) worked out at 122%; in series [4] (400 mg/kg), 117%. In addition, the LD50 – broadly, the dose at which mortality reaches 50% – was found to be 8600 ± 370 mg/kg in the series “Toxicity, LD50, rats” and 1800 ± 130 mg/kg in “Toxicity, LD50, rabbits”. Further, the “Heart NA level (percentages in relation to the controls)” value with dopamine-β-hydroxylase [5] (200 mg/kg) was 98%; with dopamine-β-hydroxylase [5] (400 mg/kg), 102%.
